Among the data in patent US20110044943A1, “Anti-Viral Compounds, Compositions, And Methods Of Use” (priority 2007, published 2011) are inhibition values, retold here.

The experiment in a line: Replicon Assay (luciferase, ET cell line). It is filed as cell-based, HCV. Particulars: Hepatitis C virus; tested at 10 μM; inhibition of replication relative to no compound control; luciferase 48-72 hours. The source says: A cell line, ET (Huh-lucubineo-ET) was used for screening of compounds, or pharmaceutically acceptable salts or solvates, described herein for inhibition of HCV RNA dependent RNA polymerase. The ET cell line was stably transfected with RNA transcripts harboring a I389luc-ubi-neo/NS3-3′/ET; replicon with firefly luciferase-ubiquitin-neomycin phosphotransferase fusion protein and EMCV-IRES driven NS3-5B polyprotein containing the cell culture adaptive mutations (E1202G; T1280I; K1846T) (Krieger at al, 2001 and unpublished). The ET cells were grown in DMEM, supplemented with 10% fetal calf serum, 2 mM Glutamine, Penicillin (100 IU/mL)/Streptomycin (100 μg/mL), 1× nonessential amino acids, and 250 μg/mL G418 (“Geneticin”). They were all available through Life Technologies (Bethesda, Md.). The cells were plated at 0.5-1.0×10^4 cells/well in the 96 well plates and incubated for 24 hrs before adding the test compounds. […] Luciferase activity was measured 48-72 hours later by adding a lysis buffer and the substrate (Catalog number Glo-lysis buffer E2661 and Bright-Glo luciferase system E2620 Promega, Madison, Wis.). […] Under the same condition, cytotoxicity of the compounds was determined using cell proliferation reagent, WST-1 (Roche, Germany). […] EC50 and similarly TC50 values were calculated by fitting % inhibition at each concentration to the following equation: […]
(In general: In antiviral work, replicon cells carry a viral genome segment that copies itself.)

On to `Fc1cccc(-c2nc3cnn(Cc4cc(-c5ccc(Oc6ccccn6)cc5)no4)cc-3n2)c1F` [Compound 217], for which at 10 µM the inhibition was 85.3%.

As usually defined, the inhibition is the percentage by which the read-out fell short of the control.
